The text below walks through data of patent publication US20240100065A1, “METHODS FOR TREATING RECEPTOR-INTERACTING PROTEIN KINASE 1-MEDIATED DISEASES” (Genzyme Corporation, priority 2022, published 2024).

This data set is described as follows: CSF concentration, CSF-to-unbound plasma concentration ratio (Part 1b). Type of data set: in vivo, healthy adult participants (human). The note with it: human; for Kp: oral. How it is done:
Compound 1 concentrations in CSF were measured after single oral dosing in two dedicated cohorts in Part 1b. Lumbar puncture was performed for CSF collection and only one CSF sample per participant was collected on Day 1. Given the limited number of CSF PK samples that were collected in this study, CSF PK parameters were not determined; instead, Compound 1 concentrations in CSF were reported and concentration ratio between CSF and unbound plasma was calculated.
PK population included all participants exposed to Compound 1 with no major or critical deviations related to Compound 1 and for whom PK data were considered sufficient and interpretable. PK parameters were summarized by descriptive statistics for each dose level group. Distribution of Tmax values was represented by histogram plots for each dose level group. In Part 1a, dose proportionality was assessed using a linear model on Cmax, AUClast and AUC. In Part 2, all PK analyses were performed separately for each regimen (OD and BID). Steady state was assessed on Ctrough using a non-linear model. Accumulation was assessed using a linear model on log-transformed accumulation ratio. Dose proportionality was assessed using a power model on Cmax and AUCtau on Day 1 and Day 14, separately. Variance components of log-transformed Cmax and AUCtau were estimated using a linear model. In Part 1b, CSF concentration was described by dose level group and CSF to plasma unbound concentration ratios calculated were described in the same way. 4β-hydroxycholesterol on Day 14 versus Day 1 pre-dose concentration ratios were summarized using descriptive statistics by dose level group and point estimates with 90% confidence interval (90% CI) for the geometric mean of the log-transformed Day14/Day1 ratio was calculated in Part 2.

Like-named read-outs stand apart in the source and are kept apart here.

Turning to `CC(C)(C(=O)N1CCOc2c(C#N)cncc2C1)C(F)F` [Compound 1, 4-(3,3-difluoro-2,2-dimethyl-propanoyl)-3,5-dihydro-2H-pyrido[3,4-f] [1,4]oxazepine-9-carbonitrile], the “CSF/unbound plasma ratio, mean values” is given as approximately 1.0. Moreover, the Kp (CSF / unbound plasma, Part 1b single dose fed, [T1H-T3H], read-out: CSF-to-unbound Plasma concentration ratio, geometric mean) turned out to be 0.817. Moreover, the Kp (CSF / unbound plasma, Part 1b single dose fed, [T1H-T3H], read-out: CSF-to-unbound Plasma concentration ratio, mean) amounted to 0.84. The Kp (CSF / unbound plasma, Part 1b single dose fed, [T1H-T3H], read-out: CSF-to-unbound Plasma concentration ratio, median) worked out at 0.732. For the setting “CSF / unbound plasma, Part 1b single dose fed, [T4H-T6H], read-out: CSF-to-unbound Plasma concentration ratio, geometric mean”, the Kp amounted to 0.755. Besides, the Kp (CSF / unbound plasma, Part 1b single dose fed, [T4H-T6H], read-out: CSF-to-unbound Plasma concentration ratio, mean) stood at 0.804. Also, the Kp (CSF / unbound plasma, Part 1b single dose fed, [T4H-T6H], read-out: CSF-to-unbound Plasma concentration ratio, median) was found to be 0.825. Under “CSF / unbound plasma, Part 1b single dose fed, [T5H-T16H], read-out: CSF-to-unbound Plasma concentration ratio, geometric mean”, the Kp was found to be 1.27. Also, the Kp (CSF / unbound plasma, Part 1b single dose fed, [T5H-T16H], read-out: CSF-to-unbound Plasma concentration ratio, mean) worked out at 1.27. The Kp (CSF / unbound plasma, Part 1b single dose fed, [T5H-T16H], read-out: CSF-to-unbound Plasma concentration ratio, median) was 1.31. For the same compound, the Kp (CSF / unbound plasma, time intervals [T1H-T3H] or [T4H-T6H], read-out: Ratio CSF to unbound plasma) is approximately 0.8. Moreover, where the note is “CSF and unbound plasma, read-out: CSF/unbound plasma ratio, mean values”, the Kp is approximately 1. The Kp (CSF and unbound plasma, time interval [T8H-T10H], read-out: Ratio CSF to unbound plasma) is approximately 1.3.
